Measurements reported in article PMC8260761, “A bacteriocin-based treatment option for Staphylococcus haemolyticus biofilms” (Scientific Reports, 2021).

Assays:
Experiment in all cases: Spot-on-lawn inhibition assay
Assay type in all cases: cell-based
[1] = test system: Staphylococcus haemolyticus strains; parameters: key to Mutants observed after 24 h (mark *): *Mutants observed after 24 h; key to Average inhibition score: –: “−” = No inhibition; “+” = Unclear zone; “++” = zone < 1 cm; “+++” = zone ≥ 1 cm; settings: for Mutants observed after 24 h (mark *): spot of 5 μl at 1 mg/ml
Procedure: (§1) A semi-quantitative spot-on-lawn inhibitory assay was performed on 51 bacterial indicator strains (Table S1) to determine the bacteriocins inhibition spectra. Overnight cultures were diluted 1:100 in BHI soft agar and distributed on BHI agar plates. Once solidified, bacteriocins with various concentrations were applied on designated spots. The plates were incubated at appropriate temperature O/N and inhibition zones were measured the following day. To determine minimal inhibitory concentration (MIC50) of H1 against clinical S. haemolyticus isolates (Table S2), as well as strains heterologously expressing RseP (Table S4), the microtiterplate antimicrobial assay was performed as previously described[41],[79]. MIC50 was defined as the minimal bacteriocin concentration needs to inhibit the growth of a bacterial strain by at least 50%.

[2] = test system: E. faecalis; parameters: key: –: “−” = No inhibition; “+” = Unclear zone; “++” = zone < 1 cm; “+++” = zone ≥ 1 cm; settings: 5 µl at 1 mg/ml, n=3
Procedure: as §1

[3] = test system: Enterococcus avium; parameters: key: –: “−” = No inhibition; “+” = Unclear zone; “++” = zone < 1 cm; “+++” = zone ≥ 1 cm; settings: Enterococcus avium LMG 3465; 5 µl at 1 mg/ml; n=3
Procedure: as §1

[4] = test system: L. ivanovii; parameters: key: –: “−” = No inhibition; “+” = Unclear zone; “++” = zone < 1 cm; “+++” = zone ≥ 1 cm; settings: L. ivanovii Li4; 5 µl at 1 mg/ml; n=3
Procedure: as §1

[5] = test system: L. plantarum; parameters: key: –: “−” = No inhibition; “+” = Unclear zone; “++” = zone < 1 cm; “+++” = zone ≥ 1 cm; settings: L. plantarum LMG 2352; 5 µl at 1 mg/ml; n=3
Procedure: as §1

[6] = test system: Lactococcus garvieae; parameters: key: –: “−” = No inhibition; “+” = Unclear zone; “++” = zone < 1 cm; “+++” = zone ≥ 1 cm; settings: Lactococcus garvieae DCC43; 5 µl at 1 mg/ml; n=3
Procedure: as §1

[7] = test system: E. faecium; settings: 5 µl at 1 mg/ml, n=3
Procedure: as §1

[8] = test system: Lactobacillus curvatus; settings: 5 µl at 1 mg/ml, n=3
Procedure: as §1

[9] = test system: S. homonis; settings: S. homonis LMG 3129; 5 µl at 1 mg/ml; n=3
Procedure: as §1

[10] = test system: Carnobacterium divergens; parameters: key: “-“ = No inhibition; “+” = Unclear zone; “++” = zone < 1 cm; “+++”= zone > 1 cm; settings: Carnobacterium divergens NCDO 2306; 5 µl at 1 mg/ml; n=3
Procedure: as §1

[11] = test system: Esherichia coli; parameters: key: “-“ = No inhibition; “+” = Unclear zone; “++” = zone < 1 cm; “+++”= zone > 1 cm; settings: 5 µl at 1 mg/ml, n=3
Procedure: as §1

[12] = test system: L. sakei; parameters: key: “-“ = No inhibition; “+” = Unclear zone; “++” = zone < 1 cm; “+++”= zone > 1 cm; settings: 5 µl at 1 mg/ml, n=3
Procedure: as §1

[13] = test system: S. aureus; parameters: key: “-“ = No inhibition; “+” = Unclear zone; “++” = zone < 1 cm; “+++”= zone > 1 cm; settings: 5 µl at 1 mg/ml, n=3
Procedure: as §1

[14] = test system: Streptococcus dysgalactiae; parameters: key: “-“ = No inhibition; “+” = Unclear zone; “++” = zone < 1 cm; “+++”= zone > 1 cm; settings: Streptococcus dysgalactiae 7649-3; 5 µl at 1 mg/ml; n=3
Procedure: as §1

MLAKIKAMIKKFPNPYTLAAKLTTYEINWYKQQYGRYPWERPVA [EJ97, enterocin EJ97]
Average inhibition score ([1]; S. haemolyticus 4068, 5 μl at 1 mg/ml, n = 3): ++ (“++” = zone < 1 cm)
Mutants observed after 24 h (mark *) ([1]; S. haemolyticus 4068): *
Average inhibition score ([1]; S. haemolyticus 4069, 5 μl at 1 mg/ml, n = 3): ++ (“++” = zone < 1 cm)
Mutants observed after 24 h (mark *) ([1]; S. haemolyticus 4069): *
Average inhibition score ([1]; S. haemolyticus 4070, 5 μl at 1 mg/ml, n = 3): ++ (“++” = zone < 1 cm)
Mutants observed after 24 h (mark *) ([1]; S. haemolyticus 4070): *
Average inhibition score ([1]; S. haemolyticus 4071, 5 μl at 1 mg/ml, n = 3): ++ (“++” = zone < 1 cm)
Mutants observed after 24 h (mark *) ([1]; S. haemolyticus 4071): *
Average inhibition score ([1]; S. haemolyticus 4072, 5 μl at 1 mg/ml, n = 3): ++ (“++” = zone < 1 cm)
Mutants observed after 24 h (mark *) ([1]; S. haemolyticus 4072): *
Average inhibition score ([1]; S. haemolyticus 4073, 5 μl at 1 mg/ml, n = 3): ++ (“++” = zone < 1 cm)
Mutants observed after 24 h (mark *) ([1]; S. haemolyticus 4073): *
Average inhibition score ([1]; S. haemolyticus 7067_4_21, 5 μl at 1 mg/ml, n = 3): ++ (“++” = zone < 1 cm)
Mutants observed after 24 h (mark *) ([1]; S. haemolyticus 7067_4_21): *
Average inhibition score ([1]; S. haemolyticus 7067_4_28, 5 μl at 1 mg/ml, n = 3): +++ (“+++” = zone ≥ 1 cm)
Mutants observed after 24 h (mark *) ([1]; S. haemolyticus 7067_4_28): *
Average inhibition score ([1]; S. haemolyticus 7067_4_39, 5 μl at 1 mg/ml, n = 3): +
Average inhibition score ([1]; S. haemolyticus 7067_4_48, 5 μl at 1 mg/ml, n = 3): +
Average inhibition score ([1]; S. haemolyticus 7067_4_49, 5 μl at 1 mg/ml, n = 3): ++ (“++” = zone < 1 cm)
Mutants observed after 24 h (mark *) ([1]; S. haemolyticus 7067_4_49): *
Average inhibition score ([1]; S. haemolyticus 7067_4_56, 5 μl at 1 mg/ml, n = 3): ++ (“++” = zone < 1 cm)
Mutants observed after 24 h (mark *) ([1]; S. haemolyticus 7067_4_56): *
Average inhibition score ([1]; S. haemolyticus 7067_4_60, 5 μl at 1 mg/ml, n = 3): +++ (“+++” = zone ≥ 1 cm)
Mutants observed after 24 h (mark *) ([1]; S. haemolyticus 7067_4_60): *
Average inhibition score ([1]; S. haemolyticus 7067_4_66, 5 μl at 1 mg/ml, n = 3): ++ (“++” = zone < 1 cm)
Mutants observed after 24 h (mark *) ([1]; S. haemolyticus 7067_4_66): *
Average inhibition score ([1]; S. haemolyticus 7067_4_67, 5 μl at 1 mg/ml, n = 3): ++ (“++” = zone < 1 cm)
Mutants observed after 24 h (mark *) ([1]; S. haemolyticus 7067_4_67): *
Average inhibition score ([1]; S. haemolyticus 7067_4_71, 5 μl at 1 mg/ml, n = 3): +++ (“+++” = zone ≥ 1 cm)
Mutants observed after 24 h (mark *) ([1]; S. haemolyticus 7067_4_71): *
Average inhibition score ([1]; S. haemolyticus 7067_4_84, 5 μl at 1 mg/ml, n = 3): ++ (“++” = zone < 1 cm)
Mutants observed after 24 h (mark *) ([1]; S. haemolyticus 7067_4_84): *
Average inhibition score ([1]; S. haemolyticus 7068_7_63, 5 μl at 1 mg/ml, n = 3): ++ (“++” = zone < 1 cm)
Mutants observed after 24 h (mark *) ([1]; S. haemolyticus 7068_7_63): *
Average inhibition score ([1]; S. haemolyticus LMG 4133, 5 µl at 1 mg/ml, n=3): ++ (“++” = zone < 1 cm)
Average inhibition score ([1]; S. haemolyticus SH01, 5 μl at 1 mg/ml, n = 3): +++ (“+++” = zone ≥ 1 cm)
Mutants observed after 24 h (mark *) ([1]; S. haemolyticus SH01): *
Average inhibition score ([1]; S. haemolyticus SH04, 5 μl at 1 mg/ml, n = 3): +++ (“+++” = zone ≥ 1 cm)
Mutants observed after 24 h (mark *) ([1]; S. haemolyticus SH04): *
Average inhibition score ([1]; S. haemolyticus SH09, 5 μl at 1 mg/ml, n = 3): +
Average inhibition score ([1]; S. haemolyticus SH10, 5 μl at 1 mg/ml, n = 3): +++ (“+++” = zone ≥ 1 cm)
Mutants observed after 24 h (mark *) ([1]; S. haemolyticus SH10): *
Average inhibition score ([1]; S. haemolyticus SH14, 5 μl at 1 mg/ml, n = 3): ++ (“++” = zone < 1 cm)
Mutants observed after 24 h (mark *) ([1]; S. haemolyticus SH14): *
Average inhibition score ([1]; S. haemolyticus SH20, 5 μl at 1 mg/ml, n = 3): ++ (“++” = zone < 1 cm)
Mutants observed after 24 h (mark *) ([1]; S. haemolyticus SH20): *
Average inhibition score ([1]; S. haemolyticus SH46, 5 μl at 1 mg/ml, n = 3): ++ (“++” = zone < 1 cm)
Mutants observed after 24 h (mark *) ([1]; S. haemolyticus SH46): *
Average inhibition score ([1]; S. haemolyticus SH47, 5 μl at 1 mg/ml, n = 3): +++ (“+++” = zone ≥ 1 cm)
Mutants observed after 24 h (mark *) ([1]; S. haemolyticus SH47): *
Inhibition zones at three concentrations ([1]; six S. haemolyticus strains 4068–4073, 0.04, 0.2 and 1.0 mg/ml, 5 µl spotted): some inhibition was seen only at the highest concentration
Average inhibition score ([2]; E. faecalis LMG 2333): +++ (“+++”= zone > 1 cm)
Average inhibition score ([2]; E. faecalis LMG 3330): +++ (“+++”= zone > 1 cm)
Average inhibition score ([2]; E. faecalis LMG 3331): +++ (“+++”= zone > 1 cm)
Average inhibition score ([2]; E. faecalis LMG 3332): +++ (“+++”= zone > 1 cm)
Average inhibition score ([2]; E. faecalis V583): +
Average inhibition score [3]: +++ (“+++”= zone > 1 cm)
Average inhibition score [4]: +
Average inhibition score [5]: ++ (“++” = zone < 1 cm)
Average inhibition score [6]: +
Average inhibition score ([7]; E. faecium AL41): +++ (“+++”= zone > 1 cm)
Average inhibition score ([7]; E. faecium L50): +++ (“+++”= zone > 1 cm)
Average inhibition score ([7]; E. faecium P13): +++ (“+++”= zone > 1 cm)
Average inhibition score ([7]; E. faecium P21): +++ (“+++”= zone > 1 cm)
Average inhibition score ([8]; L. curvatus LMG 2353): +++ (“+++”= zone > 1 cm)
Average inhibition score ([8]; Lactobacillus curvatus LTH 1174): +++ (“+++”= zone > 1 cm)
Average inhibition score [9]: +++ (“+++”= zone > 1 cm)
Average inhibition score [10]: -
Average inhibition score ([11]; E. coli TG1): -
Average inhibition score ([11]; Esherichia coli DH5α): -
Average inhibition score ([12]; L. sakei 148): -
Average inhibition score ([12]; L. sakei LMG 2380): -
Average inhibition score ([13]; S. aureus ATCC14458): -
Average inhibition score ([13]; S. aureus LMG 3325): -
Average inhibition score ([13]; S. aureus LMG 3328): -
Average inhibition score ([13]; S. aureus LMG 3329): -
Average inhibition score [14]: -
